We go through twelve compounds from patent US20120071493A1, “SUBSTITUTED 8-SULFONYL-2,3,4,5-TETRAHYDRO-1H-GAMMA-CARBOLINES, LIGANDS AND PHARMACEUTICAL COMPOSITION; METHOD FOR THE PRODUCTION AND USE OF SAME” (priority 2009, published 2012).

One test concerns male mice of BALB/c line. Briefly: Mice Behavior in the Elevated Plus Maze test. The test is classed as in vivo. Here is the method:
The experiments were carried out in aged male mice of BALB/c line weighing about 25 g. Animals were housed 5-7 per cage with water and food available. None of animals was acquainted with experimental set-up before. Each experimental group included 8 animals.
The procedure used was described earlier by Lister (Lister R. G. The use of a plus-maze to measure anxiety in the mouse. Psychopharmacology, 1987; 92:180-185). Plexiglass set-up consisted of two opened arms of 30×5 cm size and two closed arms of 30×5×15 cm size was used. Side arms were closed with transparent plexiglass and were connected with central zone via platform of 5×5 cm size. Opened arms, central platform and floor were made of black plexiglass. The set-up was mounted on a metallic base which was placed 38.5 cm above floor level.
Animals were injected intraperitoneally with placebo, Buspirone (5 mg/kg, 30 minutes before training), Lorazepam (0.05 mg/kg, 60 minutes before training) or with one of the compounds of the general formula 1, for example, compound 1.1.1(4).HCl or compound 1.2.1(3).HCl in doses 0.05 mg/kg and 0.2 mg/kg. Buspirone and Lorazepam were introduced in maximal effective dose, at which side sedative effect and general decrease of exploratory activity (number of arm entries during the test) were not observed yet.
Each mouse was placed in maze center with its head towards the opened arm. Over a period of 5 minutes the sequence and duration of arm entries were registered by means of computer program. Criterion for entry is location of all animal's paws inside the arm at the same time. Index of preference was calculated as ratio of the time spent by animal in opened arms as well as the number of entries into opened arms to the total time spent by it in opened and closed arms or, respectively, to the whole number of entries to arms of both types. The number of defecations left by mouse was regarded as additional parameter characterizing anxiety state.

In test [1] the target is T1, recombinant human 5-HT6 receptor (Homo sapiens, UniProt P50406).
T1 construct: host or cells: HEK 293 cells with tetracycline-induced T-Rex system (Invitrogen)
Put plainly: Antagonistic activity towards serotonin 5-HT6 receptors, cAMP cell function experiment. The test is classed as cell-based. To be noted: HEK 293 cells expressing recombinant human 5-HT6 receptor; cAMP response to 10 μM serotonin; read-out: IC50, ability to block serotonin 5-HT6 receptors in the setting of cell function experiments. The protocol:
Determination of antagonistic activity of substituted 8-sulfonyl-2,3,4,5-tetrahydro-1H-γ-carbolines of the general formula 1 towards serotonin 5-HT6 receptors. HEK 293 cells with tetracycline-induced T-Rex system (Invitrogen, USA) consistently expressing recombinant human 5-HT6 receptor, production of Etogen Scientific (USA), were used. The cells were grown in DMEM/10% FBS/1% AAS medium with Blasticidine S and Zeocin (both—Invitrogen, USA). According to the method worked up by the producer of T-Rex system tetracycline hydrochloride was added to the medium with the cells for the purpose of activation of 5-HT6 receptor expression. The cells were embedded in 96-well plates (30,000-40,000 cells per well) and incubated in 5%-CO2 incubator at 37° C. for 24 hs. Before experiments cells medium was replaced by Hank's balanced salt solution (HBSS), comprising 0.137 M NaCl, 5.4 mM KCl, 0.25 mM Na2HPO4, 0.44 mM KH2PO4, 1.3 mM CaCl2, 1.0 mM MgSO4, 5 mM HEPES (pH 7.4), 0.05% BSA and 1 mM IBMX. The tested compounds of general formula 1 were added to the cells in various concentrations. After incubation of the cells for 15 min at room temperature serotonin was added to them up to final concentration of 10 μM and incubation was continued for 30 min. The newly formed cAMP was determined by reagent kit LANCE cAMP Kit, according to the method described by the kit manufacturer […] (PerkinElmer, CIIIA). […] The data given testify that novel γ-carbolines of the general formula 1 are effective serotonin 5-HT6 receptor antagonists. Some of γ-carbolines of the general formula 1 have IC50<0.5 μM in the setting of cell function experiments (IC50—antagonist concentration blocking 5-HT6 receptors for 50%).

Another test deals with male mice of SHK line. Put plainly: Novel Object Recognition test, Scopolamine-disturbed recognition. The following applies: Scopolamine 1 mg/kg. In kind it is in vivo. The protocol:
The test was carried out in aged male mice of SHK line. Plexiglass plus maze, consisted of 4 dead-end chambers (numbered 1, 2, 3, 4), joined together through the fifth central chamber, was used in experiments. Mouse was placed into central chamber and allowed to explore the maze. Floor was cleaned after each animal. The sequence of chamber entries and duration of visits were registered by observer. Test was ended after 13 entries into dead-end chambers. Criterion for entry was location of all animal's paws inside the chamber at the same time.
During the training an animal was placed in the maze with one equiform bowl in each side chamber. In the course of testing (one hour after training) two opposite standing bowls were replaced by identical flasks, and animal was allowed to explore the maze. The time spent by animal in each side chamber was registered during the periods of training and testing. Index of novel object recognition was calculated as ratio of time spent by animal in side chambers with novel objects to the total time spent by it in all side chambers. In comparison with the training phase the appearance of novel object extends the time spent by animal in the chamber with novel object (so-called effect of novel object recognition). The recognition of novel objects was disturbed under action of Scopolamine administered in 1 mg/kg dose intraperitoneally 30 minutes before training, and recognition index was decreased.

pIC50: −log10 of the molar value. Counter-ions that a name gives are not always drawn.

T1 sequence (P50406 whole entry): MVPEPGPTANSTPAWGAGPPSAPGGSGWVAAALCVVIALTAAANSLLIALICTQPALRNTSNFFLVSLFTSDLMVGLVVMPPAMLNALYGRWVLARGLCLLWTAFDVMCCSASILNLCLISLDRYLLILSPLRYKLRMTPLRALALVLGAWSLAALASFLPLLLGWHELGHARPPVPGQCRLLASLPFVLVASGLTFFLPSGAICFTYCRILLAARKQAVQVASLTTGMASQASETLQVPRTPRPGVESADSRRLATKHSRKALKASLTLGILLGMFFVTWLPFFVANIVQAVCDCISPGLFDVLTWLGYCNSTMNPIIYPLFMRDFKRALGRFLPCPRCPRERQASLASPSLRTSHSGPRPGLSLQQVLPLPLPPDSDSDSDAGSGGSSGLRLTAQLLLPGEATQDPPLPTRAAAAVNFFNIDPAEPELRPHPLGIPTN

`O=C1CC2(CCCC2)CC(=O)N1CCCCN1CCN(c2ncccn2)CC1` [Buspirone, reference compound]: in the test with male mice of BALB/c line (5 mg/kg intraperitoneally, 30 minutes before training), the “anxiolytic effect in elevated plus maze” value is recorded as “well-marked anxiolytic effect”.

One may read the pIC50 as −log10 of the IC50, conventionally taken in molar units. `CN1CCc2[nH]c3ccc(S(=O)(=O)c4ccncc4)cc3c2C1` [1.1(2)•2HCl]: the negative logarithm of the IC50 (pIC50) in test [1] was 5.16. On to `O=C1Nc2ccc(Cl)cc2C(c2ccccc2Cl)=NC1O` (stereo not drawn) [Lorazepam, reference compound], for which, in the test with male mice of BALB/c line (0.05 mg/kg intraperitoneally, 60 minutes before training), the “anxiolytic effect in elevated plus maze” value is “well-marked anxiolytic effect”.

`CN1CCN(S(=O)(=O)c2ccc3[nH]c4c(c3c2)CN(C)CC4)CC1` [1.2(10)]: the pIC50 in test [1] is 4.21.

In the case of `O=S(=O)(Nc1cccc(F)c1)c1ccc2[nH]c3c(c2c1)CN(Cc1ccccc1)CC3` [1.2(6)•HCl], in test [1], the negative-log IC50 (pIC50) is 7.66. With `CN1CCc2c(c3cc(S(=O)(=O)c4ccccc4)ccc3n2CCc2ccccn2)C1` [1.1(16)•2HCl], the pIC50 in test [1] is 6.21. With `Cc1ccc2c(c1)c1c(n2CCc2ccc(C)nc2)CCN(C)C1` [Dimebon, reference compound], the “prevention of Scopolamine influence on novel object recognition” value in the test on male mice of SHK line (0.1 mg/kg intraperitoneally 5 minutes before training) was “could be prevented”. On to `CN1CCc2[nH]c3ccc(S(=O)(=O)c4cccc(F)c4)cc3c2C1` [1.1.1(3)•HCl], for which the pIC50 in test [1] is 7.07. For `Cc1ccc(S(=O)(=O)n2c3c(c4cc(S(=O)(=O)c5ccccc5)ccc42)CN(C)CC3)cc1` [1.1(10)•HCl, 2-Methyl-5-(4-methylphenylsulfonyl)-8-(phenylsulfonyl)-2,3,4,5-tetrahydro-1H-γ-caboline hydrochloride], the pIC50 in test [1] is roughly 5.00. For the compound `CN1CCc2[nH]c3ccc(S(=O)(=O)c4cccnc4)cc3c2C1` [1.1(1)•2HCl], the pIC50 in test [1] is 7.07. Regarding `Nc1c2c(nc3ccccc13)CCCC2` [Tacrine, reference compound], the “prevention of Scopolamine influence on novel object recognition” value in the test with male mice of SHK line (10 mg/kg intraperitoneally 30 minutes before training) is “could be prevented”. Turning to `CN1CCc2[nH]c3ccc(S(=O)(=O)N(C)C)cc3c2C1` [1.2(1), N,N,2-Trimethyl-2,3,4,5-tetrahydro-1H-γ-carboline-8-sulfonamide], the negative-log IC50 (pIC50) in test [1] was roughly 5.00.
